The values below come from patent US20260116902A1, “NOVEL COMPOUND AS FUNCTIONAL ANTAGONIST FOR S1PR1 AND S1PR4” (NEXTGEN BIOSCIENCE CO., LTD., priority 2024, published 2026).

For orientation: EC50 means the midpoint of the concentration-response curve. High values mean a less potent agent, low ones a more potent agent.

The experiment has as its target T1, S1PR1 (Homo sapiens, UniProt P21453).
T1 construct: host or cells: CHO-K1 (PathHunter eXpress β-Arrestin GPCR cells)
The experiment in a line: β-arrestin recruitment assay (PathHunter CHO-K1), S1PR1. Particulars: agonism. The format is cell-based. How it is done:
To this end, each of the cell lines in which S1PR1, S1PR2, S1PR3, and S1PR4 are overexpressed (PathHunter® CHO-K1 eXpress β-Arrestin GPCR cells; DiscoverX, Fremont, USA) was seeded in a 384-well plate at 5000 cells/well and cultured using an AssayComplete™ Cell Culture Kit-107 (DiscoverX, Fremont, USA). […] A PathHunter detection reagent cocktail (DiscoverX, Fremont, USA) was added in accordance with the manufacturer's instructions and incubated for 1 hour, followed by measuring a chemiluminescent signal (luminescence reader, 0.1 to 1 second/well).
(Activated receptors often draw arrestin, which recruitment assays turn into a signal.)

T1 sequence (P21453 whole entry): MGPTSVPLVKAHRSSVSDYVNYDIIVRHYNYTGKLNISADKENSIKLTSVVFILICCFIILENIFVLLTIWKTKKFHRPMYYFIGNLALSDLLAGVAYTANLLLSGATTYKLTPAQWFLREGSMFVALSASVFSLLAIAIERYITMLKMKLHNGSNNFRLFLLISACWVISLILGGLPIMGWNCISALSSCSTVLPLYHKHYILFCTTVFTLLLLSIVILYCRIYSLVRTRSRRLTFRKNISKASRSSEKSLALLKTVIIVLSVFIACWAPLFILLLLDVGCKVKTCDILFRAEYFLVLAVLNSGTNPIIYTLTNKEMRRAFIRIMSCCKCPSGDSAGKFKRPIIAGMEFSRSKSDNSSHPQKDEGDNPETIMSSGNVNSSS

`CCCCCCCCCCCCC/C=C/[C@@H](O)[C@@H](N)COP(=O)(O)O` [Compound S1P, sphingosine-1-phosphate]: the EC50 was determined as 16.3 nM.
